Experimental findings from PubChem BioAssay (NCI) are described below.

Some test systems named below: NCI-H226 lung; MDA-MB-435; BT-549 breast; HS 578T breast; MCF7 breast; PC-3 prostate; M14 melanoma; T-47D breast; A498 renal; ACHN renal; MDA-MB-231 breast; KM20L2 colon; DLD-1 colon; M19-MEL melanoma; DMS 114 small cell lung; XF 498 CNS; HOP-18 NSCLC.
Common to all, as to assay: NCI-60 cell line screen, 48 h

Several values for one entry are separate records, joined by “and”; a condition that tells them apart may be missing. Equal values may be shown once.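 Values below derive from 48-hour exposures of cells grown in 96-well plates, with endpoints linearly interpolated between the two concentrations bracketing the appropriate inhibition level. At the GI50, growth is halved. TGI is the concentration that stops growth completely.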

With `O=C1OC(c2ccccc2)=NC1c1ccccc1` (stereo not given), the TGI in the test on NCI-H226 lung, with MDA-MB-435, with BT-549 breast, in the test on HS 578T breast, with MCF7 breast and in the test with PC-3 prostate was over 100 µM each time. Besides, the TGI in the test with M14 melanoma, with T-47D breast, with A498 renal, in the test with ACHN renal and in the test on MDA-MB-231 breast was over 100 µM throughout.
In the case of `OCC#CCNCl`, the TGI in the test with NCI-H226 lung, in the test on KM20L2 colon, with DLD-1 colon, with MCF7 breast, in the test on M19-MEL melanoma and in the test with DMS 114 small cell lung was over 100 µM in each case. In addition, the TGI in the test with XF 498 CNS was over 95.2 µM; in the test with A498 renal, over 100 µM; with HOP-18 NSCLC, over 100 µM.
Regarding `FC(F)(F)c1ccc2c(c1)N(CCCNCCN1CCOCC1)c1ccccc1S2`, the TGI was found to be 17 µM in the test on KM20L2 colon; 33.7 µM with DLD-1 colon; 22.5 µM with M19-MEL melanoma; 4.13 µM with M14 melanoma; 15.2 µM in the test on XF 498 CNS; 34.9 µM with A498 renal. The compound also displayed a TGI with ACHN renal of 24.7 µM.
As for `O=[N+]([O-])C(=C/c1ccccc1)/C(=C\c1ccccc1)[N+](=O)[O-]`, the TGI with NCI-H226 lung worked out at 47.3 µM; with MDA-MB-435, 30.3 µM; in the test with BT-549 breast, 31.4 µM; with HS 578T breast it was 77.1 µM; in the test on MCF7 breast, 34.4 µM; with PC-3 prostate it was 44.7 µM. For the same compound, the TGI was 41.6 µM with M14 melanoma, 48.2 µM in the test with T-47D breast, 30.6 µM with ACHN renal and 26.2 µM in the test on MDA-MB-231 breast.
As to `C/C(=C/C(=O)Nc1ccccc1)Nc1onc(C)c1C`, the TGI with NCI-H226 lung, with KM20L2 colon, in the test on DLD-1 colon, in the test on MCF7 breast, with M19-MEL melanoma and in the test on DMS 114 small cell lung was over 100 µM in each case. In addition, the TGI in the test with XF 498 CNS, in the test with A498 renal and in the test on HOP-18 NSCLC was over 100 µM throughout.
As for `OCC1O[C@H](O[C@@H]2CCCN3CC(O)C(O)[C@@H]23)C(O)C(O)C1O` (stereo not given in full), the TGI in the test with NCI-H226 lung, in the test on KM20L2 colon, in the test with DLD-1 colon, in the test with M19-MEL melanoma, in the test on M14 melanoma and with A498 renal was over 100 µM in each case. The TGI with HOP-18 NSCLC and with ACHN renal was over 100 µM throughout.
For `Cc1ccc(/C=C2\Sc3scc(-c4ccccc4)[n+]3C2=O)cc1`, the TGI is over 100 µM in the test with NCI-H226 lung; over 44.3 µM in the test on MDA-MB-435; 50.9 µM in the test with BT-549 breast; 37.5 µM in the test with HS 578T breast; over 100 µM with MCF7 breast; over 100 µM in the test with PC-3 prostate. Also, the TGI in the test with M14 melanoma is over 94.9 µM; in the test on T-47D breast, over 100 µM; in the test on ACHN renal it was 51.7 µM; in the test on MDA-MB-231 breast, 65 µM.
In the case of `Nc1nc(Nc2ccc(Cl)c(Cl)c2)nc2nc[nH]c12`, the TGI in the test on NCI-H226 lung worked out at 50.2 µM; in the test on MDA-MB-435, 32 µM; in the test on BT-549 breast, 25.8 µM; with HS 578T breast, 20.2 µM; in the test with MCF7 breast it was 45.6 µM; in the test with PC-3 prostate, 41.2 µM. For the same compound, the TGI in the test with M14 melanoma is 29.8 µM; in the test with T-47D breast, 25.1 µM; in the test with A498 renal, 21.7 µM; in the test on ACHN renal it was 25.2 µM; in the test with MDA-MB-231 breast, 31.3 µM.
Regarding `O=C1C(Cl)N(c2c(Cl)cccc2Cl)C1c1c[nH]c2ccccc12` (stereo not given), the TGI with KM20L2 colon, in the test with DLD-1 colon, in the test on M19-MEL melanoma, in the test on M14 melanoma and in the test with XF 498 CNS was over 100 µM throughout.
Take `COc1cc(OC2OC(CO)C(O)C(O)C2O)c2c(O)c3c(=O)cc(C)oc3cc2c1` (stereo not given): the TGI in the test with NCI-H226 lung, in the test on MDA-MB-435, in the test on BT-549 breast, in the test with HS 578T breast, in the test with MCF7 breast and with PC-3 prostate was over 100 µM throughout. In addition, the TGI with M14 melanoma, in the test with T-47D breast, with A498 renal and in the test on ACHN renal was over 100 µM in each case.
Turning to `CCOC(=O)Cc1cc(OC)c(OC)cc1/C(Cl)=C(\CO)c1ccc(OC)c(OC)c1`, the TGI with KM20L2 colon is over 100 µM; in the test on DLD-1 colon, over 100 µM; in the test with M19-MEL melanoma it was over 100 µM; with M14 melanoma it was over 100 µM; in the test with DMS 114 small cell lung, over 100 µM; in the test on XF 498 CNS, 49.2 µM. For the same compound, the TGI with HOP-18 NSCLC and in the test on ACHN renal was over 100 µM each time.
With `C[N+](C)(CCCCCC[N+](C)(C)CCCN1C(=O)c2cccc3cccc(c23)C1=O)CCCN1C(=O)c2cccc3cccc(c23)C1=O`, the TGI with MDA-MB-435, with BT-549 breast, in the test on HS 578T breast, with MCF7 breast, with PC-3 prostate and in the test on T-47D breast was over 100 µM throughout. For the same compound, the TGI in the test on A498 renal, with ACHN renal and in the test on MDA-MB-231 breast was over 100 µM each time.
`CCNC(=O)C(C)C1CCC2(C)C=CC(=O)C(C)=C2C1O` (stereo not given): the TGI in the test with NCI-H226 lung, in the test with KM20L2 colon, in the test with DLD-1 colon, with MCF7 breast, with M19-MEL melanoma and in the test with DMS 114 small cell lung was over 100 µM in each case. Moreover, the TGI in the test with XF 498 CNS, with A498 renal and in the test with HOP-18 NSCLC was over 100 µM each time.
As for `O=S(O)CCCCCSSc1ccccc1`, the TGI was over 100 µM in the test on DLD-1 colon; over 100 µM in the test with M19-MEL melanoma; over 100 µM in the test with M14 melanoma; 66.6 µM in the test with DMS 114 small cell lung; 72.3 µM in the test on XF 498 CNS; over 100 µM in the test on A498 renal. This compound yielded a TGI in the test with ACHN renal of over 100 µM.
Regarding `O=C(NN1C(=O)C(Cl)C1c1ccccc1O)c1ccccc1O` (stereo not given), the values for the TGI in the test on KM20L2 colon, in the test with M14 melanoma and in the test on DMS 114 small cell lung were over 100 µM, over 100 µM and 55.2 µM, respectively.
`N#C/C(=C\c1ccncc1)c1csc2ccccc12`: the TGI with NCI-H226 lung is over 77.1 µM; in the test on KM20L2 colon it was 54.6 µM; in the test with DLD-1 colon, 96.9 µM; in the test on MCF7 breast, over 96.7 µM; with M19-MEL melanoma it was over 91.2 µM; in the test on XF 498 CNS, 46.3 µM. The TGI came to 66.6 µM in the test with A498 renal and 99.7 µM with HOP-18 NSCLC.
For the compound `CCCCCC(=O)N[C@@H](c1ccco1)[C@@H](O)C(=O)O[C@H]1C[C@@]2(O)[C@@H](OC(=O)c3ccccc3)[C@@H]3[C@]4(OC(C)=O)CO[C@@H]4C[C@H](O)[C@@]3(C)C(=O)[C@H](OC(C)=O)C(=C1C)C2(C)C`, the results for the GI50 in the test with NCI-H226 lung, in the test on BT-549 breast and in the test on MDA-MB-231 breast were 0.00133 µM, 0.00109 µM and 0.00211 µM, respectively. In addition, the TGI is 0.0309 µM and 0.025 µM in the test on HS 578T breast; over 25 µM with MCF7 breast; over 25 µM in the test with ACHN renal.
